Data reported in patent publication EP0485217A2, “Hydantoin derivatives, and their use in preventing and treating diabetic complications and circulatory organ diseases” (priority 1990, dated 1992).
Like-named read-outs stand apart in the source and are kept apart here. Marks after values point to notes of the source that are not given here.

Key:
[1] = test system: platelet aggregation; test: In-vitro inhibition of platelet aggregation in platelet rich plasma; assay type: cell-based, rat
Description: Then, the residues were centrifuged to obtain a supernatant fluid in the form of platelet poor plasma (PPP for short). For measurement, an amount of PRP collected from two to four animals was pooled. The platelet aggregation test was carried out with NBS HEMA TRACER (Model PAT-60 made by Niko Bioscience Co., Ltd.). […] After 1-minute preincubation, 3 µl of the test compound were added and, one minute later, 30 µl of an aggregation inducer (collagen or ADP) were introduced. Added to a control group was the test compound together with 3 µl of dimethyl sulfoxide. Upon the addition of the aggregation inducer, a maximum transmittance change was read to find a platelet aggregation change in %.

[2] = test system: platelet aggregation; test: Ex-vivo inhibition of platelet aggregation after intravenous administration; assay type: in vivo, rat; details: inhibition relative to control, blood 5 minutes after dosing; for Collagen (10 μM): inducer collagen
Description: The thus treated blood was centrifuged at 1500 rpm for 5 minutes to obtain a supernatant fluid in the form of PRP. The residues were then again centrifuged at 4°C and 3000 rpm for 10 minutes to obtain a supernatant fluid in the form of PPP. […] of PRP were put in a PRP cuvette having a stirrer bar with the transmittance set at 0%, while 300 µl of PPP were put in a PPP cuvette with the transmittance set at 100%. After 1-minute preincubation, 20 µl of an aggregation inducer (collagen or ADP) were introduced.
A control group, to which dimethylacetamide and tartaric acid in a ratio of 2/3 were given in a quantity of 1 ml/kg, was treated as with the test group. Upon the addition of the aggregation inducer, a maximum transmittance change was read to find a platelet aggregation change in %.

[3] = test system: left atrium; test: Extracted heart, left atrium sample (systole force, electrically stimulated); parameters: species or system Hartley guinea pigs; details: Cavia porcellus, read-out: Systole Forces
Description: (§1) Stunned by receving a blow on the heads, Hartley guinea pigs (weighing 300-400 g) were fixed on the back regions to extract their hearts. […] This vessel was previously filled with a Krebs-Henseleit solution and the above gaseous mixture continued to be supplied thereto during preparing the sample.
(§2) In order to prepare the sample, the right and left atria were cut out of the ventricular muscule along the atriventricular sulcus from the center of both the right and left auricles.
While a platinum bipolar electrode attached to the above-mentioned micro wire clamp was in contact with the atrium, stimuli were given to it by 1-Hz, 2-msec. and 10-V rectangular waves derived through an electrical stimulator and an isolator to record the movement of said atrium with an FD pickup connected with it through silk thread.

[4] = test system: right atrium; test: Extracted heart, right atrium sample (heart rate); parameters: species or system Hartley guinea pigs; details: Cavia porcellus, read-out: Heart Rates
Description: as §1, §2
The contraction of the sample was recorded on a recorder through an FD pickup simultaneously with counting and recording the beat with an instantaneous cardiograph unit.

[5] = test system: Extracted Guinea Pigs' Aortae; test: Relaxation of extracted thoracic aorta contracted by KCl or NE; parameters: species or system Hartley guinea pigs; details: Cavia porcellus
Description: Stunned by receiving a blow on the head, Hartley guinea pigs (weighing 300-500 g) were fixed at the back regions, and the thoracic aortae were then extracted to prepare helical samples, each ca. 2 mm in width and ca. 25 mm in length. Each sample was suspended in a Magnus tube under a load of ca. 1 g and connected at the upper end with an FD pickup by means of silk thread to record its isometric tension change on a recorder.
Prior to initiating the experiment, the sample was allowed to stand for 60 to 90 minutes, during which the Krebs-Henseleit solution was replaced by a new one at an interval of 20 to 30 minutes. […] Finally, papaverine was additionally provided to regulate the final concentration to 2 x 10- ^5g/ml, thereby observing and recording what relaxing reaction took place.
The state stabilized by the addition of KCI or NE was defined as a 100% relaxation rate, on the basis of which what reaction took place at each concentration was relatively estimated.

[6] = biological target: aldose reductase (Rattus norvegicus, UniProt P07943); test: Action on aldose reductase inhibition (method of Kador et al.); assay type: biochemical; details: 50 % inhibition of aldose reductase
Description: Chem.", Vol. 8, page 81 (1978) to detrermine how much they inhibited aldose reductase.
Note that IC50 is an index to the 50 % inhibition of aldose reductase.

[7] = test system: coronary artery bloodstream; test: Coronary bloodstream of dogs under anesthesia (i.v.); assay type: in vivo; details: anesthetized dogs, control 8.7±2.1
Description: Fully developed, mongrel male and female dogs were each put under anesthesia with sodium pentobarbital and subjected to commissurotomy while artificial respiration was applied to them. The coronary artery bloodstream was determined with an electromagnetic bloodstream probe attached to the ramus circumflexus of the left coronary artery.
Each of the test compounds was administered to the animal through a cannula fixedly inserted into the cephalic vein.

[8] = test system: poikilocytes; test: Ex-vivo amelioration of poikilocytes (filtration under pressure of erythrocyte suspension); assay type: in vivo; details: rat
Description: (§3) Five minutes after the test compound had been intravenously administered to the tail of a rat, blood was gathered from the descending aorta of the rat which was lightly etherized. Added to this blood was citric acid (3.8% sodium citrate) in a volume ratio of 1/10.
Blood gathered with the addition of citric acid was centrifuged at 4°C and 1500 rpm for 10 minutes. The supernatant fluid was discarded. Added to the residues was physiological saline in an amount of about 1.5 times as large, again followed by 10-minute centrifugation at 4°C and 1500 rpm. The supernatant fluid was discarded. One hundred (100) µl of erythrocytes left upon such procedures repeated twice were diluted with physiological saline to prepare 50 ml of a 0.2 % erythrocyte suspension. This suspension was incubated at 37°C for 5 minutes, cooled down to room temperature and examined to find how much the poikilocytes were ameliorated by the filtration-under-pressure procedures described by F. Katsuraya in "Geriatric Medicine", Vol. 20, pp. 151-156 (1982).
To this end, the suspension sample was passed from a continuous feeder through a Millipore membrane having a mean pore size of […] at a rate of 5 ml/min, during which the pressure on the upstream side of the membrane was measured through a pressure transducer with a pressure amplifier and, at the same time, was recorded on a polygraph chart sheet.

[9] = test system: erythrocytes; test: Oxygen dissociation of erythrocytes (HEMOX-ANALYZER), ex vivo; assay type: in vivo, rat; details: 10 mg/kg; control mean 31.08
Description: as §3
Blood gathered with the addition of heparin was used to determine the oxygen dissociation of the erthro- cytes with HEMOX-ANALYZER.

[10] = Rattus norvegicus, read-out: IC50 Collagen
[11] = 10^-4(M), left atrium, suppression
[12] = 10^-5(M), left atrium, suppression
[13] = 10^-4(M), right atrium, suppression
[14] = 10^-5(M), right atrium, suppression
[15] = rat PRP, aggregation inducer collagen, read-out: IC50 Collagen
[16] = 50% relaxation, contraction by KCl 2.5 x 10^-2M, read-out: IC50(M) Contraction by KCl
[17] = 50% relaxation, contraction by norepinephrine 10^-6 g/ml, read-out: IC50(M) Contraction by NE

Structure (SMILES)	inhibition at 100 µM [3, 11] [%]	inhibition at 10 µM [3, 12] [%]	inhibition at 100 µM [4, 13] [%]	inhibition at 10 µM [4, 14] [%]	IC50 [6] [µM]	IC50 [1, 15] [µM]	IC50 [5, 16] [M]	IC50 [5, 17] [M]	further results
CC(=O)Oc1ccccc1C(=O)O [Aspirin, reference compound]									IC50 [1, 10]: 210 µM; Collagen (10 μM) ([2]; 30.0 mg/kg intravenously): 77%
CC(C(O)c1ccc(O)cc1)N1CCC(Cc2ccccc2)CC1 (stereo not shown) [B, ifenprodil, reference compound]	10 to 20	0	> 20	> 20					
COc1cc(/C=C/C(=O)N2CCN(CC(=O)N3CCCC3)CC2)cc(OC)c1OC [Cinepazid, reference compound]									IC50 ([5]; read-out: IC50(M) Contraction by KCl): 0.002 M; IC50 ([5]; read-out: IC50(M) Contraction by NE): 0.001 M
O=C1NC(=O)[C@@]2(C[C@@H](C(=O)N3CCC(Cc4ccccc4)CC3)Oc3ccc(F)cc32)N1 [Compound 1]	10 to 20	0	0	0	0.31	630	1.3e-06	1e-05	C.B.S. (coronary bloodstream) ([7]; 0.1 mg/kg i.v.): 9.6±6.9; ADP (1 x 10^-6M) ([2]; 1.0 mg/kg intravenously, inducer ADP 1 x 10^-6M): 44* %; Collagen (10 μM) ([2]; 1.0 mg/kg intravenously): 57%; Amelioration in % ([8]; 0.1 mg/kg intravenously): 29.3%
O=C1NC(=O)[C@@]2(C[C@@H](C(=O)N3CCN(C(c4ccccc4)c4ccccc4)CC3)Oc3ccc(F)cc32)N1 [Compound 2, 4-diphenylmethyl-1-{(2S,4S)-6-fluoro-2,5'-dioxospiro[chromane-4,4'-imidazolidine]-2-carbonyl}piperazine]	10 to 20	0	> 20	10 to 20	0.045	430	0.00012	1e-06	C.B.S. (coronary bloodstream) ([7]; 1.0 mg/kg i.v.): 13.8±2.9; IC50 ([1]; rat PRP, aggregation inducer ADP, read-out: IC50 ADP): 770 µM; Amelioration in % ([8]; 1.0 mg/kg intravenously): 37.9%; P50 in mmHg Mean [9]: 32.58 mmHg
O=C1NC(=O)[C@@]2(C[C@@H](C(=O)N3CCN(CC=Cc4ccccc4)CC3)Oc3ccc(F)cc32)N1 [Compound 3, 4-cinnamyl-1-{(2S,4S)-6-fluoro-2',5'-dioxospiro[chromane-4,4'-imidazolidine]-2-carbonyl}piperazine]	10 to 20	0	> 20	10 to 20	0.41	370	> 0.001	> 0.001	
CC(C)NCC(O)COc1cccc2ccccc12 (stereo not shown) [Control A, propranolol, reference compound]									inhibition at 10 µM [3]: > 20%; inhibition at 100 µM [3]: > 20%; inhibition at 10 µM [4]: > 20%; inhibition at 100 µM [4]: > 20%
COc1ccc2c(c1)c(CC(=O)O)c(C)n2C(=O)c1ccc(Cl)cc1 [Indomethacin, reference compound]									IC50 [1, 10]: 68 µM; Collagen (10 μM) ([2]; 30.0 mg/kg intravenously): 49%
